The record followed here is patent US20100035865A1, “Sulfonamides and Pharmaceutical Compositions Thereof” (PFIZER INC, priority 2007, published 2010).

“And” between values parts separate entries of the source, which are not always exact repeats. Identical values can stand only once. Like-named read-outs stand apart in the source and are kept apart here.

The test system of the assay is AMPA receptors. The assay can be described thus: AMPA ES Cell FLIPR Screen, G7330B (EC50 and % effect). The assay is classed as cell-based, murine. The conditions noted are these: for EC50: ES cell-derived neurons, 32 uM AMPA challenge. The protocol: The murine ES cell line used was E14-Sx1-16C, which has a targeted mutation in the Sox1 gene, a neuroectodermal marker, that offers G418 resistance when the Sox1 gene is expressed (Stem Cell Sciences). ES cells were maintained undifferentiated as previously described (Roach). […] ES cells were plated on gelatin-coated dishes (BD Biosciences), the media was changed daily and the cells were dissociated with 0.05% Trypsin EDTA (Invitrogen) every other day.
Embryoid Body Formation: Prior to embryoid body (EB) formation the ES cells were weaned from FBS onto Knockout Serum Replacement (KSR) (Invitrogen). To form EBs, ES cells were dissociated into a single cell suspension then 3×10^6 cells were plated in bacteriology dishes (Nunc 4014) and grown as a suspension culture in NeuroEB-I medium that consisted of Knockout™ D-MEM (Invitrogen), supplemented with 10% KSR (Invitrogen), 0.2 mM L-Glutamine (Invitrogen), 0.1 mM MEM non-essential amino acids (Invitrogen), 30 μg/ml Gentamicin (Invitrogen), 1000 u/ml ESGRO (Chemicon), 0.1 mM 2-Mercaptoethanl (Sigma) and 150 ng/ml Transferrin (Invitrogen). The plates were put on a Stovall Belly Button shaker in an atmospheric oxygen incubator. The media was changed on day 2 of EB formation with NeuroEB-I and on day 4 with NeuroEB-II (NeuroEB-I plus 1 μg/ml mNoggin [R&D Systems]).
Neuronal Precursor Selection and Expansion: On day 5 of EB formation, EBs were dissociated with 0.05% Trypsin EDTA, and 4×10^6 cells/100 mm dish were plated on Laminin coated tissue culture dishes in NeuroII-G418 medium that consisted of a base medium of a 1:1 mixture of D-MEM/F12 supplemented with N2 supplements and NeuroBasal Medium supplemented with B27 supplement and 0.1 mM L-Glutamine (all from Invitrogen). The base medium was then supplemented with 10 ng/ml bFGF (Invitrogen), 1 μg/ml mNoggin, 500 ng/ml SHH-N, 100 ng/ml FGF-8b (R&D Systems), 1 μg/ml Laminin and 200 μg/ml G418 (Invitrogen) for selection of neuronal precursors expressing Sox-1. The plates were put in an incubator that contained 2% Oxygen and were maintained in these conditions. During the 6-day selection period, the NeuroII media was changed daily. On day 6, the surviving neuronal precursor foci were dissociated with 0.05% Trypsin EDTA and the cells were plated at a density of 1.5×10^6 cells/100 mm Laminin coated dish in NeuroII-G418 medium. The cells were dissociated every other day for expansion, and prepared for Cryopreservation at passage 3 or 4. The cryopreservation medium contained 50% KSR, 10% Dimethyl Sulfoxide (DMSO) (Sigma) and 40% NeuroI-G418I medium. Neuronas precursors were crypreserved at a concentration of 4×10^6cells/ml and 1 ml/cryovial in a controlled rate freezer overnight then transferred to an ultra-low freezer or liquid nitrogen for long-term storage,
Neuronal Differentiation: Cryopreserved ES cell-derived neuronal precursors were thawed by the rapid thaw method in a 37-degree water-bath. The cells were transferred from the cryovial to a 100 mm Laminin coated tissue culture dish that already contained NeuroII-G418 that had been equilibrated in a 2% Oxygen incubator. The media was changed with fresh NeuroII-G418 the next day. The cells were dissociated every other day as described above for expansion to generate enough cells to plate for the screen. For the screen, the cells were plated into 384-well poly-d-lysine coated tissue culture dishes (BD Biosciences) by the automated SelecT at a cell density of 6K cells/well in differentiation medium NeuroIII that contained a 4:1 ratio of the NeuroBasalMedium/B27:D-MEM/F12/N2 supplemented with 1 μM cAMP (Sigma), 200 μM Ascorbic Acid (Sigma), 1 μg/ml Laminin (Invitrogen) and 10 ng/ml BDNF (R&D Systems). The plates were put in an incubator with 2% Oxygen and allowed to complete the differentiation process for 7 days. The cells could then be used over a 5-day period for the high throughput screen.
Procedure for AMPA ES Cell FLIPR Screen […]

[1] abbreviates: Dose 32.0 uM, individual determinations.
The mark [2] stands for this setting: individual determinations, read-out: G7330B (U): EC50.
The mark [3] stands for this setting: mean of individual determinations (range and n in cells below), read-out: G7330B mean EC50.
Where [4] appears, read: Dose 31.6 uM, individual determinations.

Take `CC(C)S(=O)(=O)NC1CCNCC1c1ccc(-c2cc(Cl)ccc2Cl)cc1` (stereo not drawn) [Example 23, Propane-2-sulfonic acid[trans-3-(2′,5′-dichloro-biphenyl-4-yl)-piperidin-4-yl)]-amide]: under setting [1], the “G7330B (U): % Effect” value was 10.1% and 9.71% and 6.91%. In addition, the EC50 under setting [2] was over 32 µM and the EC50 under setting [3] was over 32 µM.
Consider `CC(=O)N1CCC(NS(=O)(=O)C(C)C)C(c2ccc(-c3ccc(C#N)cc3)cc2)C1` (stereo not drawn) [Example 28, Propane-2-sulfonic acid[trans-1-acetyl-3-(4′-cyano-biphenyl-4-yl)-piperidin-4-yl]-amide], for which the “G7330B (U): % Effect” value under setting [1] was 128% and 132% and 116%. The EC50 is 6.44 µM under setting [2] and 6.44 µM under setting [3].
Consider `CC(C)S(=O)(=O)NC1CCN(S(C)(=O)=O)CC1c1ccc(-c2ccccc2)cc1` (stereo not drawn) [Example 26, Propane-2-sulfonic acid(trans-3-biphenyl-4-yl-1-methanesulfonyl-piperidin-4-yl)-amide], for which the “G7330B (U): % Effect” value under setting [1] was 13.3% and 10.8% and 9.95%. Besides, the EC50 is over 32 µM under setting [2] and over 32 µM under setting [3].
`CCS(=O)(=O)NC1CCOCC1c1ccc(-c2ccccc2)cc1` (stereo not drawn) [Example 16, Ethanesulfonic acid(trans-3-biphenyl-4-yl-tetrahydro-pyran-4-yl)-amide]: the “G7330B (U): % Effect” value under setting [1] was 153% and 141% and 140%. The EC50 was 10.4 µM and > 31.6 µM and > 10 µM under setting [2]; over 18.2 µM under setting [3].
For `CC(=O)N1CC[C@@H](NS(=O)(=O)C(C)C)[C@H](c2ccc(NC(=O)c3ccccc3)cc2)C1` (relative stereo) [Example 39, N-{4-[trans-1-Acetyl-4-(propane-2-sulfonylamino)-piperidin-3-yl]-phenyl}-benzamide], under setting [4], the “G7330B (U): % Effect” value is 145% and 142%. Also, the EC50 reads like this: under setting [2], 20.2 µM; under setting [3], 20.2 µM.
Regarding `CC(C)S(=O)(=O)NC1COCCC1c1ccc(-c2ccccc2)cc1` (stereo not drawn) [Example 30, Propane-2-sulfonic acid(trans-4-biphenyl-4-yl-tetrahydro-pyran-3-yl)-amide], the “G7330B (U): % Effect” value under setting [1] is 119% and 113% and 126%. Further, the EC50 under setting [2] is 5.39 µM and > 31.6 µM and 6.36 µM; the EC50 under setting [3] is over 10.3 µM.
Take `CC(C)S(=O)(=O)N[C@H]1COCC[C@]1(O)c1ccc(-c2ccccc2)cc1` (relative stereo) [Example 41, Propane-2-sulfonic acid((3S,4S)-rel-4-biphenyl-4-yl-4-hydroxytetrahydro-pyran-3-yl)-amide]: the “G7330B (U): % Effect” value under setting [4] was 58.3% and 66.6%. Besides, the EC50 was determined as 3.05 µM under setting [2] and 3.05 µM under setting [3].
Turning to `CCN1CC[C@@H](c2ccc(-c3ccccc3)cc2)[C@H](NS(=O)(=O)C(C)C)C1` (relative stereo) [Example 5, propane-2-sulfonic acid (trans-4-biphenyl-4-yl-1-ethyl-piperidin-3-yl)-amide], the “G7330B (U): % Effect” value under setting [4] is 76.3% and 78.8%. Also, the EC50 reads like this: under setting [2], over 31.6 µM; under setting [3], over 31.6 µM.
On to `CC(C)S(=O)(=O)N[C@@H]1COCC[C@H]1c1ccc(-c2ccc(S(C)(=O)=O)cc2)cc1` [Example 37, Propane-2-sulfonic acid[trans-4-(4′-methanesulfonyl-biphenyl-4-yl)-tetrahydro-pyran-3-yl]-amide], for which the EC50 under setting [2] is over 10 µM and the EC50 under setting [3] is over 10 µM.
Regarding `CC(=O)N1CC[C@@H](NS(=O)(=O)C(C)C)[C@H](c2ccc(NC(=O)c3cc(F)cc(F)c3)cc2)C1` (relative stereo) [Example 40, N-{4-[trans-1-Acetyl-4-(propane-2-sulfonylamino)-piperidin-3-yl]-phenyl}-3,5-difluoro-benzamide], under setting [4], the “G7330B (U): % Effect” value is 152% and 179% and 176%. Moreover, the EC50 by setting is: under setting [2], 11.7 µM; under setting [3], 11.7 µM.
Take `CC(C)S(=O)(=O)NC1CCNCC1c1ccc(-c2ccccc2)cc1` (stereo not drawn) [Example 18, Propane-2-sulfonic acid(trans-3-biphenyl-4-yl-piperidin-4-yl)-amide]: the “G7330B (U): % Effect” value under setting [1] is 5.77% and 3.59% and 3.97%. Further, the concentration for a half-maximal effect (EC50) reads like this: under setting [2], over 32 µM; under setting [3], over 32 µM.
As for `CC(=O)N1CCC(c2ccc(-c3ccccc3)cc2)C(NS(=O)(=O)C(C)C)C1` (stereo not drawn) [Example 43, Propane-2-sulfonic acid(trans-1-acetyl-4-biphenyl-4-yl-piperidin-3-yl)-amide], the “G7330B (U): % Effect” value under setting [4] is 85.0% and 92.2% and 102%. Further, the EC50 runs as follows: under setting [2], over 31.6 µM; under setting [3], over 31.6 µM.
As for `CC(C)S(=O)(=O)NC1CCOCC1c1ccc(-c2ccccc2)cc1` (stereo not drawn) [Example 15, Propane-2-sulfonic acid(trans-3-biphenyl-4-yl-tetrahydro-pyran-4-yl)-amide], under setting [1], the “G7330B (U): % Effect” value was 108% and 109% and 101%. Moreover, the EC50 is, setting by setting: under setting [2], 2.84 µM and 3.14 µM and 5.42 µM; under setting [3], 3.64 µM.
Take `CC(C)S(=O)(=O)NC1CN(S(C)(=O)=O)CCC1c1ccc(-c2ccccc2)cc1` (stereo not drawn) [Example 6, propane-2-sulfonic acid (trans-4-biphenyl-4-yl-1-methanesulfonyl-piperidin-3-yl-amide]: the “G7330B (U): % Effect” value under setting [4] was 0.710% and −1.26% and 0.0628%. Also, the EC50 under setting [2] is over 31.6 µM and the concentration for a half-maximal effect (EC50) under setting [3] is over 31.6 µM.
Take `CC(C)S(=O)(=O)NC1CCNCC1c1ccc(-c2ccccc2C#N)cc1` (stereo not drawn) [Example 20, Propane-2-sulfonic acid[trans-3-(2′-cyano-biphenyl-4-yl)-piperidin-4-yl]-amide]: the “G7330B (U): % Effect” value under setting [1] is 39.9% and 48.6% and 44.4%. Also, the EC50 by setting is: under setting [2], over 32 µM; under setting [3], over 32 µM.
Turning to `CC(C)S(=O)(=O)NC1COCCC1c1ccc(-c2ccc(C#N)cc2)cc1` (stereo not drawn) [Example 35, Propane-2-sulfonic acid[trans-4-(4′-cyano-biphenyl-4-yl)-tetrahydro-pyran-3-yl]-amide], under setting [4], the “G7330B (U): % Effect” value is 146% and 155% and 152%. Besides, the EC50 worked out at 8.97 µM under setting [2] and 8.97 µM under setting [3].
As to `CC(C)S(=O)(=O)N[C@@H]1CCNC[C@H]1c1ccc(-c2ccccc2C(N)=O)cc1` (relative stereo) [Example 21, 4′-[trans-4-(Propane-2-sulfonylamino)-piperidin-3-yl]-biphenyl-2-carboxylic acid amide], under setting [1], the “G7330B (U): % Effect” value was 0.573% and 0.266% and 0.149%. Besides, the EC50 reads like this: under setting [2], over 32 µM; under setting [3], over 32 µM.
Regarding `CC(C)S(=O)(=O)N[C@@H]1COCC[C@H]1c1ccc(-c2ccccc2Cl)cc1` [Example 36, Propane-2-sulfonic acid[trans-4-(2′-chloro-biphenyl-4-yl)-tetrahydro-pyran-3-yl]-amide], the EC50 was 7.04 µM under setting [2] and 7.04 µM under setting [3].
In the case of `CC(C)S(=O)(=O)NC1COCCC1c1ccc(-c2ccccc2)cc1` (stereo not drawn) [Example 31, Propane-2-sulfonic acid(cis-4-biphenyl-4-yl-tetrahydro-pyran-3-yl)-amide], the “G7330B (U): % Effect” value under setting [1] is 18.3% and 11.0% and 14.5%. Besides, the 50% effective concentration (EC50) under setting [2] is over 32 µM and the EC50 under setting [3] is over 32 µM.
Consider `CC(C)S(=O)(=O)N[C@@H]1COCC[C@H]1c1ccc(-c2ccccc2C#N)cc1` [Example 34, Propane-2-sulfonic acid[trans-4-(2′-cyano-biphenyl-4-yl)-tetrahydro-pyran-3-yl]-amide], for which the “G7330B (U): % Effect” value under setting [4] stood at 137%. Further, the EC50 is 1.25 µM under setting [2] and 1.25 µM under setting [3].
